Test results: patent US20200331882A1, “COMPOUND FOR SIMULTANEOUSLY INHIBITING LSD1 AND HDAC TARGETS AND APPLICATION THEREOF” (PEKING UNIVERSITY SHENZHEN GRADUATE SCHOOL, priority 2018, published 2020)
Like-named read-outs stand apart in the source and are kept apart here.

Columns and labels:
Test in all cases: CellTiter-Glo cell proliferation
Assay type in all cases: cell-based
[1] = system: LP-1; conditions: CTG, 72 hours; for % inhibition at top conc.: highest concentration 10/50 μM; for IC50: read-out: Absolute IC50
Procedure: (§1) The effect of the present invention compound ZZY-003 on the cell proliferation of 50 cell lines was evaluated by CellTiter-Glo (CTG) method, and the 50% inhibitory concentration was calculated by detecting the cell viability after treatment with different drug concentrations. The cells were resuscitated and cultured in their respective culture media. The cells in logarithmic growth phase were harvested and the cells were counted by cell counter. The cell viability was detected by Trypan blue exclusion method to ensure that the cell line viability was more than 96%. The cell concentration was adjusted by diluting with the culture medium, and 90 μL cell suspension was added to the 96-well cell plate (including the cell control T0 on the day of drug treatment) to make the cell density reach the specified concentration. The cells in the 96-well plate were cultured overnight at 37° C., 5% CO2 and 95% humidity. 10 μL culture medium was added to the control cell culture plate. CellTiter-Glo reagent and cell culture plate were placed at room temperature to balance for 30 minutes. The same volume of CellTiter-Glo reagent was added to each well. Vibrate on the orbital shaker for 2 min to make the cells fully lytic. The cell culture plate was placed at room temperature to balance for 10 minutes. Chemiluminescence values were read with EnVision. The storage solution was formed by dissolving the tested compound with the corresponding solvent and diluted in gradient to obtain 10 times working concentration solution, and 10 times solution of positive drug was also prepared. 10 μL drug solution was added to each well in the 96-well plate in which the cells were inoculated, and each cell concentration was provided with three duplicate wells. The highest concentration of the tested compound was 10/50 μM, 9 concentrations and 3.16 times dilution. The cells in the 96-well plate added with drug were cultured at 37° C., 5% CO2 and 95% humidity for 72 hours. CellTiter-Glo reagent and drug-treated cell culture plate were placed at room temperature to balance for 30 minutes. The same volume of CellTiter-Glo reagent was added to each well. Vibrate on the orbital shaker for 2 minutes to make the cells fully lytic. The cell culture plate was placed at room temperature to balance for 10 minutes. Chemiluminescence values were read with EnVision. Data processing: […] Cell survival rate (%)=(Lum drug to be detected−Lum culture medium control)/(Lum cell control−Lum culture medium control)×100%; Lum cell control−Lum culture medium control was set to 100%, LumMedium control value was set to 0%;

[2] = system: OE19; conditions: CTG, 72 hours; for % inhibition at top conc.: highest concentration 10/50 μM; for IC50: read-out: Absolute IC50
Procedure: as §1

[3] = system: MCF 10A; conditions: CTG, 72 hours; for % inhibition at top conc.: highest concentration 10/50 μM; for IC50: read-out: Absolute IC50
Procedure: as §1

[4] = system: Hep G2; conditions: 72 hours; for % inhibition at top conc.: highest concentration 10/50 μM; for IC50: read-out: Absolute IC50
Procedure: as §1

[5] = system: AZ-521; conditions: CTG, 72 hours; for % inhibition at top conc.: highest concentration 10/50 μM; for IC50: read-out: Absolute IC50
Procedure: as §1

[6] = system: DLD-1; conditions: CTG, 72 hours; for % inhibition at top conc.: highest concentration 10/50 μM; for IC50: read-out: Absolute IC50
Procedure: as §1

[7] = system: SU-DHL-6; conditions: CTG, 72 hours; for % inhibition at top conc.: highest concentration 10/50 μM; for IC50: read-out: Absolute IC50
Procedure: as §1

[8] = system: OPM2; conditions: 72 hours; for % inhibition at top conc.: highest concentration 10/50 μM; for IC50: read-out: Absolute IC50
Procedure: as §1

[9] = system: SW480; conditions: CTG, 72 hours; for % inhibition at top conc.: highest concentration 10/50 μM; for IC50: read-out: Absolute IC50
Procedure: as §1

[10] = system: A549; conditions: CTG, 72 hours; for % inhibition at top conc.: highest concentration 10/50 μM
Procedure: as §1

[11] = system: MDA-MB-231; conditions: CTG, 72 hours; for % inhibition at top conc.: highest concentration 10/50 μM
Procedure: as §1

[12] = system: HuCCT1; conditions: 72 hours; for % inhibition at top conc.: highest concentration 10/50 μM; for IC50: read-out: Absolute IC50
Procedure: as §1

[13] = system: BT474; conditions: 72 hours; for % inhibition at top conc.: highest concentration 10/50 μM; for IC50: read-out: Absolute IC50
Procedure: as §1

[14] = system: Jurkat clone E6-1; conditions: CTG, 72 hours; for % inhibition at top conc.: highest concentration 10/50 μM; for IC50: read-out: Absolute IC50
Procedure: as §1

[15] = system: JVM-3; conditions: CTG, 72 hours; for % inhibition at top conc.: highest concentration 10/50 μM; for IC50: read-out: Absolute IC50
Procedure: as §1

[16] = system: PC-3; conditions: CTG, 72 hours; for % inhibition at top conc.: highest concentration 10/50 μM; for IC50: read-out: Absolute IC50
Procedure: as §1

[17] = system: NCI-H82; conditions: CTG, 72 hours; for % inhibition at top conc.: highest concentration 10/50 μM; for IC50: read-out: Absolute IC50
Procedure: as §1

[18] = system: K-562; conditions: 72 hours; for % inhibition at top conc.: highest concentration 10/50 μM; for IC50: read-out: Absolute IC50
Procedure: as §1

[19] = system: HCT-116; conditions: CTG, 72 hours; for % inhibition at top conc.: highest concentration 10/50 μM; for IC50: read-out: Absolute IC50
Procedure: as §1

[20] = system: B16-F10; conditions: CTG, 72 hours; for % inhibition at top conc.: highest concentration 10/50 μM; for IC50: read-out: Absolute IC50
Procedure: as §1

[21] = system: LN-229; conditions: CTG, 72 hours; for % inhibition at top conc.: highest concentration 10/50 μM; for IC50: read-out: Absolute IC50
Procedure: as §1

[22] = system: HeLa; conditions: CTG, 72 hours; for % inhibition at top conc.: highest concentration 10/50 μM; for IC50: read-out: Absolute IC50
Procedure: as §1

[23] = system: U266B1; conditions: CTG, 72 hours; for % inhibition at top conc.: highest concentration 10/50 μM; for IC50: read-out: Absolute IC50
Procedure: as §1

[24] = system: SF268; conditions: 72 hours; for % inhibition at top conc.: highest concentration 10/50 μM; for IC50: read-out: Absolute IC50
Procedure: as §1

[25] = system: SK-OV-3; conditions: CTG, 72 hours; for % inhibition at top conc.: highest concentration 10/50 μM; for IC50: read-out: Absolute IC50
Procedure: as §1

[26] = system: AN3 CA; conditions: CTG, 72 hours; for % inhibition at top conc.: highest concentration 10/50 μM; for IC50: read-out: Absolute IC50
Procedure: as §1

[27] = system: MCF7; conditions: CTG, 72 hours; for % inhibition at top conc.: highest concentration 10/50 μM
Procedure: as §1

[28] = system: MDA-MB-453; conditions: CTG, 72 hours; for % inhibition at top conc.: highest concentration 10/50 μM; for IC50: read-out: Absolute IC50
Procedure: as §1

[29] = system: UO.31; conditions: CTG, 72 hours; for % inhibition at top conc.: highest concentration 10/50 μM; for IC50: read-out: Absolute IC50
Procedure: as §1

[30] = Homo sapiens, read-out: Absolute IC50

## N.N.[Cl][Pt][Cl] [Cisplatin, reference compound]
[1]
  % inhibition at top conc.: 99.89%
  IC50: 8680 nM
[2]
  % inhibition at top conc.: 62.99%
  IC50: 25800 nM
[3]
  % inhibition at top conc.: 99.51%
  IC50: 13200 nM
[4]; CTG
  % inhibition at top conc.: 90.70%
  IC50: 5860 nM
[5]
  % inhibition at top conc.: 99.92%
  IC50: 2890 nM
[6]
  % inhibition at top conc.: 98.93%
  IC50: 5300 nM
[7]
  % inhibition at top conc.: 99.95%
  IC50: 5650 nM
[8]; CTG
  % inhibition at top conc.: 99.97%
  IC50: 3670 nM
[9]
  % inhibition at top conc.: 94.12%
  IC50: 2690 nM
[10]
  % inhibition at top conc.: 96.72%
[11]
  % inhibition at top conc.: 85.71%
[12]; CTG
  % inhibition at top conc.: 89.54%
  IC50: 11300 nM
[13]; CTG
  % inhibition at top conc.: 67.02%
  IC50: 66100 nM
[14]
  % inhibition at top conc.: 99.96%
  IC50: 840 nM
[15]
  % inhibition at top conc.: 99.71%
  IC50: 700 nM
[16]
  % inhibition at top conc.: 85.52%
  IC50: 5340 nM
[17]
  % inhibition at top conc.: 99.63%
  IC50: 4000 nM
[18]; CTG
  % inhibition at top conc.: 97.45%
  IC50: 6070 nM
[19]
  % inhibition at top conc.: 95.72%
  IC50: 3150 nM
[20]
  % inhibition at top conc.: 99.97%
  IC50: 4530 nM
[21]
  % inhibition at top conc.: 97.32%
  IC50: 11800 nM
[22]
  % inhibition at top conc.: 99.45%
  IC50: 370 nM
[23]
  % inhibition at top conc.: 98.85%
  IC50: 14300 nM
[24]; CTG
  % inhibition at top conc.: 97.98%
  IC50: 2870 nM
[25]
  % inhibition at top conc.: 89.16%
  IC50: 5170 nM
[26]
  % inhibition at top conc.: 99.96%
  IC50: 4430 nM
[27]
  % inhibition at top conc.: 90.30%
[28]
  % inhibition at top conc.: 95.15%
  IC50: 12900 nM
[29]
  % inhibition at top conc.: 97.89%
  IC50: 4230 nM

## Cc1ccc(C(=O)Nc2cc(N3CCNCC3)ccc2-c2ccc(/C=C/C(=O)NO)cc2C)cc1.Cl [ZZY-003]
[1]
  % inhibition at top conc.: 98.94%
[1]; Homo sapiens
  IC50: 260 nM
[2]
  % inhibition at top conc.: 98.95%
[2]; Homo sapiens
  IC50: 780 nM
[3]
  % inhibition at top conc.: 97.73%
[3]; Homo sapiens
  IC50: 1490 nM
[4]; CTG
  % inhibition at top conc.: 99.98%
[4]; Homo sapiens, HepG2, CTG
  IC50: 840 nM
[5]
  % inhibition at top conc.: 99.95%
[5]; Homo sapiens
  IC50: 680 nM
[6]
  % inhibition at top conc.: 97.98%
[6]; Homo sapiens
  IC50: 5130 nM
[7]
  % inhibition at top conc.: 99.91%
[7]; Homo sapiens
  IC50: 300 nM
[8]; CTG
  % inhibition at top conc.: 98.99%
[8]; Homo sapiens, OPM-2, CTG
  IC50: 350 nM
[9]
  % inhibition at top conc.: 99.24%
[9]; Homo sapiens
  IC50: 1740 nM
[10]
  % inhibition at top conc.: 95.22%
[10]; [30]
  IC50: 2210 nM
[11]
  % inhibition at top conc.: 92.06%
[11]; [30]
  IC50: 1810 nM
[12]; CTG
  % inhibition at top conc.: 99.88%
[12]; Homo sapiens, HuCCT-1, CTG
  IC50: 1350 nM
[13]; CTG
  % inhibition at top conc.: 99.86%
[13]; Homo sapiens, BT-474, CTG
  IC50: 510 nM
[14]
  % inhibition at top conc.: 99.61%
[14]; Homo sapiens
  IC50: 480 nM
[15]
  % inhibition at top conc.: 99.48%
[15]; Homo sapiens
  IC50: 350 nM
[16]
  % inhibition at top conc.: 96.56%
[16]; Homo sapiens
  IC50: 1380 nM
[17]
  % inhibition at top conc.: 99.94%
[17]; Homo sapiens
  IC50: 370 nM
[18]; CTG
  % inhibition at top conc.: 99.85%
[18]; Homo sapiens, K562, CTG
  IC50: 460 nM
[19]
  % inhibition at top conc.: 99.94%
[19]; Homo sapiens
  IC50: 430 nM
[20]
  % inhibition at top conc.: 99.98%
[20]; Mus musculus
  IC50: 1030 nM
[21]
  % inhibition at top conc.: 99.97%
[21]; Homo sapiens
  IC50: 1570 nM
[22]
  % inhibition at top conc.: 98.88%
[22]; Homo sapiens
  IC50: 1400 nM
[23]
  % inhibition at top conc.: 98.03%
  IC50: 640 nM
[24]; CTG
  % inhibition at top conc.: 99.82%
[24]; Homo sapiens, SF-268, CTG
  IC50: 1090 nM
[25]
  % inhibition at top conc.: 99.68%
[25]; Homo sapiens
  IC50: 1590 nM
[26]
  % inhibition at top conc.: 99.92%
[26]; Homo sapiens
  IC50: 1270 nM
[27]
  % inhibition at top conc.: 96.26%
[27]; [30]
  IC50: 1610 nM
[28]
  % inhibition at top conc.: 99.93%
[28]; Homo sapiens
  IC50: 190 nM
[29]
  % inhibition at top conc.: 99.92%
[29]; Homo sapiens
  IC50: 4560 nM
